Experimental data reported in ChEMBL document CHEMBL1909046, “DrugMatrix in vitro pharmacology data”.

Experiments:
[1] = target: Mitogen-activated protein kinase 3 (Homo sapiens, UniProt P27361); assay: DRUGMATRIX: Protein Serine/Threonine Kinase, ERK1 enzyme inhibition (substrate: Myelin Basic Protein); set-up: species or system Escherichia coli; details: Not Active = under 50% inhibition at 10 µM
Cytochrome P450 2E1 = Cytochrome P450 2E1 (Homo sapiens, UniProt P05181); details: bti-tn-5b1-4; further: in other assays of this panel Not Active means under 50% inhibition at 10 µM
Cannabinoid receptor 1 = Cannabinoid receptor 1 (Homo sapiens, UniProt P21554); type: cell membranes, Membrane; details: chem-1; further: in other assays of this panel Not Active means under 50% inhibition at 10 µM
[2] = target: T1, Alpha-2C adrenergic receptor (Homo sapiens, UniProt P18825); assay: DRUGMATRIX: Adrenergic Alpha-2C radioligand binding (ligand: [3H] MK-912); type: cell membranes, Sf9, Membrane
T1 sequence (P18825 whole entry): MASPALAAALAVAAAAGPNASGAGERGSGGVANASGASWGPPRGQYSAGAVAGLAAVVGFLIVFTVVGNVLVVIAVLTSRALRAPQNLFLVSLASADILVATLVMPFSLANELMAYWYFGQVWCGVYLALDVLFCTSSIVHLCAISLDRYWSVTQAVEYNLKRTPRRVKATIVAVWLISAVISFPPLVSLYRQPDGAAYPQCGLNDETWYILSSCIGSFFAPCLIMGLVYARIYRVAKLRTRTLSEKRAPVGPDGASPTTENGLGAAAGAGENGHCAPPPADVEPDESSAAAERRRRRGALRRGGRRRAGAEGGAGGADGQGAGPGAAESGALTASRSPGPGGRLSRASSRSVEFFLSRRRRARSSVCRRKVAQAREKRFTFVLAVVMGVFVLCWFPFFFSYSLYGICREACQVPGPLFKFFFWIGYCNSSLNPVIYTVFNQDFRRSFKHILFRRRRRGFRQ

Cytochrome P450 2A6 = target: T2, Cytochrome P450 2A6 (Homo sapiens, UniProt P11509); details: bti-tn-5b1-4; further: in other assays of this panel Not Active means under 50% inhibition at 10 µM
T2 sequence (P11509 whole entry): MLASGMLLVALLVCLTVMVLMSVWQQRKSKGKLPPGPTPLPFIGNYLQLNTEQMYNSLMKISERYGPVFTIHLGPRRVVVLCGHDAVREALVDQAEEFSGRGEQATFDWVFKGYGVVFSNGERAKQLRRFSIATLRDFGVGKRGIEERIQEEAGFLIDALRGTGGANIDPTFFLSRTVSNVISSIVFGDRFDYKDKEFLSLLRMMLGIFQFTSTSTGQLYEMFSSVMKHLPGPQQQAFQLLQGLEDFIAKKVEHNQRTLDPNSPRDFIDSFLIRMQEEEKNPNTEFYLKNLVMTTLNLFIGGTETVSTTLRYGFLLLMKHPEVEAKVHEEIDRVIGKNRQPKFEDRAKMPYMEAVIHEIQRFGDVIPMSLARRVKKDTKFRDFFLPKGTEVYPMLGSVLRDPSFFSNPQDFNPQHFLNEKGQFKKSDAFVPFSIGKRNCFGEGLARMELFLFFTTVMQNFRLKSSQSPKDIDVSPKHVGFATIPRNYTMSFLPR

[3] = target: Beta-2 adrenergic receptor (Homo sapiens, UniProt P07550); assay: DRUGMATRIX: Adrenergic beta2 radioligand binding (ligand: [3H] CGP-12177); type: cell membranes, Membrane; details: cho; Not Active = under 50% inhibition at 10 µM
[4] = target: T3, Type-2 angiotensin II receptor (Homo sapiens, UniProt P50052); type: cell-based; details: cho-k1; further: in other assays of this panel Not Active means under 50% inhibition at 10 µM
T3 sequence (P50052 whole entry): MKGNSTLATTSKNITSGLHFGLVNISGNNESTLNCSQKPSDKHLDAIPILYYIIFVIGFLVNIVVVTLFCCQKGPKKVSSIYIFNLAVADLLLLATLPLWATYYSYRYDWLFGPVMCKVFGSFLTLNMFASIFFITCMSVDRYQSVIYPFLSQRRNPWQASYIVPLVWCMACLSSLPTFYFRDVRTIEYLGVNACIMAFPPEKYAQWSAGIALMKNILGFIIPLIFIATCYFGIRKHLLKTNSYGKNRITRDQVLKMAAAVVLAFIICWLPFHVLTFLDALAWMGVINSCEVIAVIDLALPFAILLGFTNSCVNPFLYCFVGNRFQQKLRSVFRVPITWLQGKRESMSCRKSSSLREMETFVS

[5] = target: T4, C-C chemokine receptor type 4 (Homo sapiens, UniProt P51679); type: cell membranes, Membrane; details: chem-1; further: in other assays of this panel Not Active means under 50% inhibition at 10 µM
T4 sequence (P51679 whole entry): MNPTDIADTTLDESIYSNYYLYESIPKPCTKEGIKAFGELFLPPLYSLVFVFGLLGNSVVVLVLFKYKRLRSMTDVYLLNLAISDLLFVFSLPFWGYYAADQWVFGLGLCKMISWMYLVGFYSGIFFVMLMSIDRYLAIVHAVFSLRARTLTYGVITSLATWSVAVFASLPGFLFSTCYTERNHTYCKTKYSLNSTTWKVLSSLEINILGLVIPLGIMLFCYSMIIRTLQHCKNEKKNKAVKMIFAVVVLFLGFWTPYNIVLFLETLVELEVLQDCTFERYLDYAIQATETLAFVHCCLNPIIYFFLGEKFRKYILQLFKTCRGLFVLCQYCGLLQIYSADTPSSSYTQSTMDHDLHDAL

[6] = DRUGMATRIX: Sodium/nucleoside co-transporter radioligand binding (ligand: nitrobenzylthioinosine); type: cell membranes, Cavia porcellus, Dunkin-Hartley, Cerebral cortex, Membrane; details: Not Active = under 50% inhibition at 10 µM
[7] = DRUGMATRIX: Platelet-Derived Growth Factor (PDGF) radioligand binding (ligand: [125I] PDGF); type: cell-based; details: nih3t3; Not Active = under 50% inhibition at 10 µM
[8] = target: T5, Alpha-1B adrenergic receptor (Rattus norvegicus, UniProt P15823); assay: DRUGMATRIX: Alpha-1B adrenergic receptor radioligand binding (ligand: prazosin); type: cell membranes, Wistar, Liver, Membrane; details: Not Active = under 50% inhibition at 10 µM; for Ki: read-out: Ki
T5 sequence (P15823 whole entry): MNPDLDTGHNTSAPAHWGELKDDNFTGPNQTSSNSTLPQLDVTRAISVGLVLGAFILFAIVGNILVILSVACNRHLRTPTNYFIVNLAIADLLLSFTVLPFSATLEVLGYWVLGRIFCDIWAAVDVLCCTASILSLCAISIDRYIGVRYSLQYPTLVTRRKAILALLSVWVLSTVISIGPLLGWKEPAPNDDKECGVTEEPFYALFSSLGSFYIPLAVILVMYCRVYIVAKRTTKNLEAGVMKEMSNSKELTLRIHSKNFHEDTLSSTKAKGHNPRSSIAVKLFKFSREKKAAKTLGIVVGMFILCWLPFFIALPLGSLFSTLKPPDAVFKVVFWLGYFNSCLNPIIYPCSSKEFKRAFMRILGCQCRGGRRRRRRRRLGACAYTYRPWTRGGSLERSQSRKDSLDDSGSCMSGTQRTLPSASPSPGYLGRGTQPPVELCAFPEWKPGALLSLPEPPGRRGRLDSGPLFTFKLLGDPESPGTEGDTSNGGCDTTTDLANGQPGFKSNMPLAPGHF

[9] = DRUGMATRIX: beta-Lactamase enzyme inhibition (substrate: Nitrocefin); set-up: species or system Bacillus cereus; details: Not Active = under 50% inhibition at 10 µM

Mitogen-activated protein kinase 3, sequence (P27361 whole entry): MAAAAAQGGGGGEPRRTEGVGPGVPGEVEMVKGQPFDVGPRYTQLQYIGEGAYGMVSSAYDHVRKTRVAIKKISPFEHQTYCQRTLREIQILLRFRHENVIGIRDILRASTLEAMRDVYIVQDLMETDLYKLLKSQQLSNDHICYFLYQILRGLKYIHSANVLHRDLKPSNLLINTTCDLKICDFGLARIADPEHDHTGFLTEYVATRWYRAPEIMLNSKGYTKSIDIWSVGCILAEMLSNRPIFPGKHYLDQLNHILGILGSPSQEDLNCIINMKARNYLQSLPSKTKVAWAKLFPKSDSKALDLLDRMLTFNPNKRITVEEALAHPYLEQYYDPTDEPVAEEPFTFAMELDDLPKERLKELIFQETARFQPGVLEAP
Cytochrome P450 2E1, sequence (P05181 whole entry): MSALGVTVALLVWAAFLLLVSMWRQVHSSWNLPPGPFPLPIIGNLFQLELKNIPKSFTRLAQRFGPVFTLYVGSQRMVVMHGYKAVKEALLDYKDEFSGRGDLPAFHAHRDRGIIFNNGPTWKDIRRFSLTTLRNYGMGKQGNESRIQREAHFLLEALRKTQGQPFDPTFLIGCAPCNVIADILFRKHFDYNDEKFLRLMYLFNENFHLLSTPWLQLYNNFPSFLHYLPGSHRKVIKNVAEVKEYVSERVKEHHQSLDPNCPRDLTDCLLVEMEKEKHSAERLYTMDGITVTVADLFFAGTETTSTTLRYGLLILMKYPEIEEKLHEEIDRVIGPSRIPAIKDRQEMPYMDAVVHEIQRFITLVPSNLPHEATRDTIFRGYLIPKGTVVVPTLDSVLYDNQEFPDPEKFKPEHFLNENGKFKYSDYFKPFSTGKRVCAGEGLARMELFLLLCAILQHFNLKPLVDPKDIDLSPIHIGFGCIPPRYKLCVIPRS
Beta-2 adrenergic receptor, sequence (P07550 whole entry): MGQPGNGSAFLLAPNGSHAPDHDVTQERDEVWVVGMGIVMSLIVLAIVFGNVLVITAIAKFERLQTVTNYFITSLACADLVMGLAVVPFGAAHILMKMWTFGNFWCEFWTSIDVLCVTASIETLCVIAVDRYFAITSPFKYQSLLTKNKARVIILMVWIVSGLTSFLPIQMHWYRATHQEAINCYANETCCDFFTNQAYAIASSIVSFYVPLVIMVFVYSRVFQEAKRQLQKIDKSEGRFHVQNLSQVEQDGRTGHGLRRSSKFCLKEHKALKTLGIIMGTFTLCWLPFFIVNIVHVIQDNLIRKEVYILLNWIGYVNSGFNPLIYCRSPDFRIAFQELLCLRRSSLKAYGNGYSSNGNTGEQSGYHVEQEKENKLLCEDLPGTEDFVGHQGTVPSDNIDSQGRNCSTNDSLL
Cannabinoid receptor 1, sequence (P21554 whole entry): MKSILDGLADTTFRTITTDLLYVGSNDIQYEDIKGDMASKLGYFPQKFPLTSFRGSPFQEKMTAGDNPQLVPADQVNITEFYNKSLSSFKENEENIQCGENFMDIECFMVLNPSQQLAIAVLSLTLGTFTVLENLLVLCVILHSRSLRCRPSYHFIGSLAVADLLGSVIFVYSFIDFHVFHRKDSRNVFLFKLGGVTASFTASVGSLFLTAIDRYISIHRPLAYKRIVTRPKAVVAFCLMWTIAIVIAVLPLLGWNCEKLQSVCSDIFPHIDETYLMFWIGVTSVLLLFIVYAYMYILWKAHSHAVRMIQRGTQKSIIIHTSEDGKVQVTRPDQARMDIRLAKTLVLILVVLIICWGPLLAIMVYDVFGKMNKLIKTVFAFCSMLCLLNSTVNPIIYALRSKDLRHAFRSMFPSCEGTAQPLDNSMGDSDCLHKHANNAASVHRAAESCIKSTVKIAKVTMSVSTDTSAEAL

Row | SMILES | IC50 [1] | IC50 (Cytochrome P450 2E1) | Ki (Cytochrome P450 2E1) | IC50 (Cannabinoid receptor 1) | IC50 (Cytochrome P450 2A6) | Ki (Cytochrome P450 2A6) | IC50 [3] | IC50 [4] | IC50 [5] | IC50 [6] | Ki [6] | IC50 ([2]; sf9) | IC50 [7] | Ki [7] | IC50 [9] | Ki [9] | further results
1 | CN1CCN2c3ccccc3Cc3ccccc3C2C1 (stereo not given) [MIANSERIN] | Not Active | Not Active | Not Active | Not Active | Not Active | Not Active | Not Active | Not Active | Not Active |  |  |  |  |  |  |  | IC50 ([2]; read-out: IC50): 179 nM; Ki ([2]; read-out: Ki): 26 nM
2 | CC(CCc1ccccc1)NCC(O)c1ccc(O)c(C(N)=O)c1 (stereo not given) [LABETALOL] | Not Active | Not Active | Not Active | Not Active | Not Active | Not Active |  | Not Active | Not Active | Not Active | Not Active | Not Active | Not Active | Not Active | Not Active | Not Active | IC50 ([8]; read-out: IC50): 583 nM; Ki [8]: 323 nM
3 | CSc1ccc2c(c1)N(CCC1CCCCN1C)c1ccccc1S2 (stereo not given) [THIORIDAZINE] | Not Active | Not Active | Not Active | Not Active | Not Active | Not Active | Not Active | Not Active | Not Active |  |  |  |  |  |  |  | 
4 | CN(C)CCCN1c2ccccc2CCc2ccc(Cl)cc21 [CLOMIPRAMINE] | Not Active | Not Active | Not Active | Not Active | Not Active | Not Active | Not Active | Not Active | Not Active |  |  |  |  |  |  |  | 
5 | CC(C)(O)c1ccccc1CC[C@@H](SCC1(CC(=O)O)CC1)c1cccc(/C=C/c2ccc3ccc(Cl)cc3n2)c1 [MONTELUKAST] | Not Active | Not Active | Not Active | Not Active | Not Active | Not Active |  | Not Active | Not Active |  |  |  |  |  |  |  | 
6 | Clc1ccccc1C(c1ccccc1)(c1ccccc1)n1ccnc1 [CLOTRIMAZOLE] | Not Active | Not Active | Not Active | Not Active | Not Active | Not Active |  | Not Active | Not Active |  |  |  |  |  |  |  | 
7 | CC(C)(C)NCC(O)c1ccc(O)c(CO)c1 (stereo not given) [ALBUTEROL] | Not Active | Not Active | Not Active | Not Active | Not Active | Not Active |  | Not Active | Not Active | Not Active | Not Active | Not Active | Not Active | Not Active | Not Active | Not Active | IC50 [8]: Not Active
8 | COC(=O)[C@@H]1[C@H]2C[C@H]3c4[nH]c5ccccc5c4CCN3C[C@@H]2CC[C@@H]1O [YOHIMBINE] | Not Active |  |  | Not Active |  |  | Not Active | Not Active | Not Active | Not Active | Not Active |  | Not Active | Not Active | Not Active | Not Active | IC50 ([8]; read-out: IC50): 1190 nM; Ki [8]: 658 nM
9 | COc1cccc(C2(O)CCCCC2CN(C)C)c1 (stereo not given) [TRAMADOL] | Not Active | Not Active | Not Active | Not Active | Not Active | Not Active | Not Active | Not Active | Not Active |  |  | Not Active |  |  |  |  | 
10 | O=C(CCCN1CCC(O)(c2ccc(Cl)cc2)CC1)c1ccc(F)cc1 [HALOPERIDOL] | Not Active | Not Active | Not Active | Not Active | Not Active | Not Active | Not Active | Not Active | Not Active |  |  |  |  |  |  |  | 
11 | CC(C)(C)NCC(O)c1cc(O)cc(O)c1 (stereo not given) [TERBUTALINE] | Not Active | Not Active | Not Active | Not Active | Not Active | Not Active |  | Not Active | Not Active | Not Active | Not Active | Not Active | Not Active | Not Active | Not Active | Not Active | IC50 [8]: Not Active
12 | COc1ccc(CCN2CCC(Nc3nc4ccccc4n3Cc3ccc(F)cc3)CC2)cc1 [ASTEMIZOLE] | Not Active | Not Active | Not Active | Not Active | Not Active | Not Active | Not Active | Not Active | Not Active |  |  |  |  |  |  |  | 
